The values below come from US20130101624A1, “LINEAR IGE PEPTIDE EPITOPES OF HAZELNUT ALLERGEN COR A 1 AND CELERY ANTIGEN API 1” (CHARITE UNIVERSITATSMEDIZIN BERLIN, priority 2010, published 2013).

Assay [1] relates to human IgE antibodies (sera of hazelnut allergic patients). Nature of the assay: Human IgE antibody binding to Cor a 1.0301 derived 12-meric peptide array (SPOT pepscan), probed with sera. The conditions noted are these: sera of 13 hazelnut allergic patients. The text has this: An array of overlapping peptides representing the entire sequence of major hazelnut allergen Cor a 1.0301 was synthesized and probed with the participants' sera. Sera of hazelnut allergic patients show binding to different distinct regions of Cor a 1. In particular, the region of dodecapeptides 17 to 22 is the most important region for IgE-binding.
(§1) Subsequently, these sequences were synthesized as peptide arrays on cellulose membranes according to SPOT technology. A highly specific secondary anti-human IgE antibody with minimum cross-reactivity towards cellulose membrane-bound peptides was employed.
Synthetic arrays were probed with sera randomly chosen from a well described cohort of subjects, including 21 patients with a defined allergic reaction to celery, 13 patients with a defined allergic reaction to hazelnut and 17 healthy individuals. Captured human IgE antibodies were detected by a HRP-labeled secondary antibody and binding was visualized by chemiluminescence. […]
Human IgE antibody binding studies: The spotted peptide arrays were prewashed with ethanol (1×10 min), washed with Tris-buffered saline (TBS), pH 8.0 (3×10 min), and blocked for 2 h at room temperature with blocking buffer. […] The signal intensities were recorded as Biomedical Light Units (BLU) by a Lumilmager™ (Boehringer Mannheim GmbH, Mannheim, Germany) using the LumiAnalyst software. […]

Assay [2] deals with human IgE antibodies (sera of celery allergic patients and healthy subjects). Description: Human IgE antibody binding to Api g 1.0101 derived 12-meric peptides arrayed on cellulose membrane (SPOT pepscan), probed with sera. As to conditions: for share of celery allergic individuals whose serum IgE responded to the peptide / recognition by sera of celery allergic patients: sera of 21 celery allergic patients; for share of celery allergic individuals whose serum IgE responded to the peptide / IgE binding in sera of healthy controls / recognition by sera of celery allergic patients: diluted 1:5; for share of celery allergic individuals whose serum IgE responded to the peptide: spot positive if SInorm above membrane cut off; for number of celery allergic patients whose sera IgE antibodies bind the sequence: of 21 celery allergic patients; for IgE binding in sera of healthy controls: sera of 17 healthy subjects.
Excerpt: as §1
Synthetic arrays were probed with sera randomly chosen from a well described cohort of subjects, including 21 patients with a defined allergic reaction to celery, 13 patients with a defined allergic reaction to hazelnut and 17 healthy individuals. Captured human IgE antibodies were detected by a HRP-labeled secondary antibody and binding was visualized by chemiluminescence.
The optimal conditions for screening the sera of 21 celery allergic patients and 17 healthy controls were as follows: (i) replica of a 12-meric pepscan with a shift of three amino acids covering the Api g 1.0101 sequence (or cor a 1 sequence, respectively) synthesized on high-loaded N-CAPE membranes (640 nmol/cm2-760 nmol/cm2); (ii) prior to treatment with sera, membranes were blocked with the Sigma-Genosys blocking buffer for 2 h at room temperature; (iii) arrays were probed for 16 h at 4° C. with diluted sera (1:5) for IgE antibody binding; (iv) the captured human IgE antibodies were detected with the HRP-labeled anti-human IgE antibody (A 9667, Sigma-Aldrich) and visualized by chemiluminescence; (v) spot signal intensities were measured on a Lumilmager and processed with the LumiAnalyst software. To check the reproducibility of our screening procedure, three different peptide arrays were incubated and evaluated for each person (allergic and healthy).
Sera binding patterns could be reproduced in repeated incubation experiments. Although inter-membrane absolute spot signal intensities differed, the relative differences between spot signal intensities were nearly the same. This enabled comparison of spot signal intensities from different membranes by applying an additional normalization procedure. We defined an IgE antibody binding spot as positive if its normalized signal intensity (SInorm) was higher than the calculated cut off value of the appropriate membrane.
Peptide array synthesis: Overlapping peptide sequences (7-, 12- and 24-mer) with a shift of three amino acids) of Api g 1.0101 or cor a 1 were prepared by a MultiPep SPOT-robot (INTAVIS Bioanalytical Instruments AG, Köln, Germany). Array design was performed with the aid of the in-house software LISA 1.83. Amino acids were used as Fmoc-protected Opfp-esters with the following side protection groups: tert-butyl ester (OtBu) for E and D, tert-butyl ether (tBu) for S, T and Y, tert-butoxycarbonyl (Boc) for K and W, triphenylmethyl (Trt) for C, N, Q and H and 2,2,4,6,7-pentamethyldihydrobenzofuran-5-sulfonyl (Pbf) for R. For standard SPOT-synthesis, double couplings of 0.3 M solutions of amino acids in 1-methyl-2-pyrollidone (NMP; Fluka, Steinheim, Germany) were applied. After the final Fmoc-deprotection step and washing procedure, cleavage of the side chain protecting groups was performed according to our standard two-step deprotection protocol.
Human IgE antibody binding studies: The spotted peptide arrays were prewashed with ethanol (1×10 min), washed with Tris-buffered saline (TBS), pH 8.0 (3×10 min), and blocked for 2 h at room temperature with blocking buffer. The membranes were incubated with the patients' sera (dilution 1:5) in blocking buffer overnight at 4° C., washed with TBS, followed by a second incubation with anti-human IgE antibody (ε-chain specific) conjugated with horse radish peroxidase (HRP) (A 9667, Sigma-Aldrich, St. Louis, USA) in blocking buffer for 2 h at room temperature. To remove excess antibody the membrane was washed with TBS (3×10 min). Detection was performed with Uptilight HRP blot chemiluminescent substrate (Uptima, Interchim, Montiugon Cedex, France) with an exposure time of 2 min. […]

Consider “AGKEKASGLFKA (listed as Corylus avellana) [COR A 1. PEP47]”, for which the “recognition by sera of hazelnut allergic patients” value in assay [1] is listed as “recognized by all sera of hazelnut allergic patients”.

As to “GDGGPGTLKIIT (listed as Apium graveolens) [compound 16]”, the “share of celery allergic individuals whose serum IgE responded to the peptide” value (shortened to “share”) in assay [2] was 38%.

On to “GGPITTMTLRID (listed as Apium graveolens) [compound 21]”, for which the “share” value in assay [2] is 29%.

Consider “IFQGFVIDVDTV (listed as Apium graveolens) [peptide 7]”, for which, in assay [2], the “number of celery allergic patients whose sera IgE antibodies bind the sequence” value (shortened to “number”) is listed as “at least six”, the “IgE binding in sera of healthy controls” value is “not reacting with any sera IgE antibody from healthy subjects” and the “share” value was determined as 38%.

Take “IITLPDGGPITT (listed as Apium graveolens) [compound 19]”: in assay [2], the “share” value turned out to be 29%.

Turning to NHVVLVPTADGG [peptide 34], in assay [2], the “number” value is reported as “at least six”, the “IgE binding in sera of healthy controls” value is on record as “not reacting with any sera IgE antibody from healthy subjects” and the “share” value is 29%.

With “PHGGSILKSISK (listed as Corylus avellana) [COR A 1. PEP37]”, in assay [1], the “recognition by sera of hazelnut allergic patients” value is listed as “recognized by all sera of hazelnut allergic patients”.

For “PTADGGSICKTT (listed as Apium graveolens) [compound 36]”, the “share” value in assay [2] is given as 43%.

With “VLVPTADGGSIC (listed as Apium graveolens) [peptide 35]”, the “spot signal intensity (BLU), ranking” value in assay [2] (average spot signal intensity, chemiluminescence, FIG. 3) was “highest measured spot signal intensity”. Also, in assay [2], the “number” value is “at least six”, the “IgE binding in sera of healthy controls” value was “not reacting with any sera IgE antibody from healthy subjects”, the “recognition by sera of celery allergic patients” value was “recognized by the sera from all the celery allergic patients” and the “share” value is listed as 100%. For the same sequence, in assay [2] (listed as VLVPTADGGSIC), the “IgE binding in sera of healthy controls” value is given as “no binding” and the “recognition by sera of celery allergic patients” value is recorded as “recognized by all sera of celery allergic patients”.
